Reference: ChEMBL document CHEMBL1201862, “PubChem BioAssay data set” (2004)
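1) Cells in 96-well plates. 2) Compound, 48 h, 5 concentrations. 3) Linear interpolation between surrounding doses. 4) Unreached endpoint = highest concentration. GI50 = concentration required for 50% inhibition of growth.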 The source made the active and inactive calls. Rule as the data show it: active = GI50 up to about 1.1 µM and inactive = higher.

How the values were obtained:
Test in all cases: NCI tumour cell line growth inhibition, 48 h
SF-295 = test system: SF-295
NCI-H522 = test system: NCI-H522
LOX IMVI = test system: LOX IMVI
OVCAR-5 = test system: OVCAR-5
BT-549 = test system: BT-549
KM12 = test system: KM12
HL-60 = test system: HL-60
MDA-MB-231 = test system: MDA-MB-231
Hs-578T = test system: Hs-578T
COLO 205 = test system: COLO 205
NCI/ADR-RES = test system: NCI/ADR-RES
HOP-62 = test system: HOP-62
DU-145 = test system: DU-145
RXF 393 = test system: RXF 393
SW-620 = test system: SW-620
SF-268 = test system: SF-268
CAKI-1 = test system: CAKI-1
NCI-H460 = test system: NCI-H460
M14 = test system: M14

| Structure (SMILES) | GI50 (SF-295) | GI50 (NCI-H522) | GI50 (LOX IMVI) | GI50 (OVCAR-5) | GI50 (BT-549) | GI50 (KM12) | GI50 (HL-60) | GI50 (MDA-MB-231) | GI50 (Hs-578T) | GI50 (COLO 205) | GI50 (NCI/ADR-RES) | GI50 (HOP-62) | GI50 (DU-145) | GI50 (RXF 393) | GI50 (SW-620) | GI50 (SF-268) | GI50 (CAKI-1) | GI50 (NCI-H460) | GI50 (M14) |
| --- | --- | --- | --- | --- | --- | --- | --- | --- | --- | --- | --- | --- | --- | --- | --- | --- | --- | --- | --- |
| c1ccc2cc(NCNc3ccc4ccccc4c3)ccc2c1 | 15.2 µM (inactive) | 17.6 µM (inactive) | 10.8 µM (inactive) | 21.3 µM (inactive) | 24.9 µM (inactive) | 13.6 µM (inactive) | 0.893 µM (active) | 2.51 µM (inactive) | 37.8 µM (inactive) | 18.8 µM (inactive) | 21.7 µM (inactive) | 19.5 µM (inactive) | 14.4 µM (inactive) | 10.3 µM (inactive) | 34.2 µM (inactive) | 38.8 µM (inactive) | 17.9 µM (inactive) | 13.4 µM (inactive) | 15.5 µM (inactive) |
| CCSc1c(C)c2c(n(Cc3ccc(OC)cc3)c1=O)Cc1ccccc1C2 | 32.1 µM (inactive) | 11.9 µM (inactive) | 11.9 µM (inactive) | 46.9 µM (inactive) | 22.9 µM (inactive) | 25.1 µM (inactive) | 6.17 µM (inactive) | 20.7 µM (inactive) | 24.5 µM (inactive) | 35.6 µM (inactive) | 5.08 µM (inactive) | 23.1 µM (inactive) | 24.7 µM (inactive) | 32.1 µM (inactive) | 15.5 µM (inactive) | 11.8 µM (inactive) | 44 µM (inactive) | 6.11 µM (inactive) | 10.9 µM (inactive) |
| N[C@H]1c2c(Br)sc(Br)c2C(=O)[C@H]1O | 21.7 µM (inactive) | 3.18 µM (inactive) | 3.61 µM (inactive) | 22 µM (inactive) | 6.3 µM (inactive) | 34.9 µM (inactive) | 2.85 µM (inactive) | 18.7 µM (inactive) | 31 µM (inactive) | 6.18 µM (inactive) | 16 µM (inactive) | 18.2 µM (inactive) | 20.3 µM (inactive) | 4.95 µM (inactive) | 6.41 µM (inactive) | 24.9 µM (inactive) | 0.214 µM (active) | 19.2 µM (inactive) | 8.69 µM (inactive) |
| C=CCSC1=N/C(=C\c2ccc(OC)cc2)C(=O)N1CC=C | 35.3 µM (inactive) | 27.7 µM (inactive) | 33 µM (inactive) | 57.8 µM (inactive) | 27 µM (inactive) | 21.9 µM (inactive) | 16 µM (inactive) | 37.2 µM (inactive) | 64.7 µM (inactive) | 20.4 µM (inactive) | 27.6 µM (inactive) | 74.6 µM (inactive) | 42.2 µM (inactive) | 14.6 µM (inactive) | 35.2 µM (inactive) | 60.4 µM (inactive) | 50.5 µM (inactive) | 27.6 µM (inactive) | 36.7 µM (inactive) |
| COC(=O)[C@](NC(=O)OCc1ccccc1)([C@@H](C)[S+]([O-])c1ccc(C)cc1)C(F)(F)F (some centres not stated) | 32.7 µM (inactive) | 24.6 µM (inactive) | 33.7 µM (inactive) | > 100 µM (inactive) | 22.4 µM (inactive) | 29.3 µM (inactive) | 17 µM (inactive) | 59.6 µM (inactive) | 58.9 µM (inactive) | 25.8 µM (inactive) | 28.7 µM (inactive) | > 100 µM (inactive) | 38.2 µM (inactive) | 20 µM (inactive) | 53.2 µM (inactive) | 41.1 µM (inactive) | 41 µM (inactive) | 29 µM (inactive) | 48.2 µM (inactive) |
| O=C1Nc2ccccc2S/C1=C\c1ccc(C(F)(F)F)cc1 | > 100 µM (inactive) | > 100 µM (inactive) | > 100 µM (inactive) | > 100 µM (inactive) | > 100 µM (inactive) | > 100 µM (inactive) | > 100 µM (inactive) | > 100 µM (inactive) | > 100 µM (inactive) | > 100 µM (inactive) | > 100 µM (inactive) | > 100 µM (inactive) | > 100 µM (inactive) | > 100 µM (inactive) | > 100 µM (inactive) | > 100 µM (inactive) | 4.59 µM (inactive) | > 100 µM (inactive) | > 100 µM (inactive) |
| COC(=O)NC(C(F)(F)F)(C(F)(F)F)P1(=O)OCCCO1 | 23.7 µM (inactive) | 14.5 µM (inactive) | 16.4 µM (inactive) | 26.1 µM (inactive) | 22.1 µM (inactive) | 22.8 µM (inactive) | 16.6 µM (inactive) | 25.3 µM (inactive) | 37.4 µM (inactive) | 23 µM (inactive) | 39.4 µM (inactive) | 21.6 µM (inactive) | 53.8 µM (inactive) | 2.74 µM (inactive) | 20.7 µM (inactive) | 25.7 µM (inactive) |  | 30.2 µM (inactive) | 24.8 µM (inactive) |
